Columns and labels:
[1] = test system: HT-1080; assay: Induction of apoptosis in human HT-1080 cells assessed as early apoptotic cells at 6 uM incubated for 12 hrs by Annexin V-FITC/PI staining based flow cytometric analysis (reference value: 2.36 %); format: functional
[2] = Tmax in Sprague-Dawley rat at 5 mg/kg, po measured after 24 hrs by LC-MS/MS analysis; format: ADME, organism-based; conditions: in vivo
[3] = test system: U-87 MG; assay: Antiproliferative activity against human U-87 MG cells assessed as reduction in cell viability incubated for 72 hrs by MTT assay; format: functional, U-87MG ATCC
[4] = test system: Isocitrate dehydrogenase [NADP] cytoplasmic (Homo sapiens), O75874 [R132H]; assay: Inhibition of recombinant human IDH1 R132H mutant extracted from Escherichia coli BL21 (DE3) cells using alpha-ketoglutarate as substrate at 0.2 uM incubated for 60 mins in presence of NADPH by absorbance based assay relative to control
Sequence of Isocitrate dehydrogenase [NADP] cytoplasmic (Homo sapiens), O75874 [R132H] (O75874 whole entry R132H): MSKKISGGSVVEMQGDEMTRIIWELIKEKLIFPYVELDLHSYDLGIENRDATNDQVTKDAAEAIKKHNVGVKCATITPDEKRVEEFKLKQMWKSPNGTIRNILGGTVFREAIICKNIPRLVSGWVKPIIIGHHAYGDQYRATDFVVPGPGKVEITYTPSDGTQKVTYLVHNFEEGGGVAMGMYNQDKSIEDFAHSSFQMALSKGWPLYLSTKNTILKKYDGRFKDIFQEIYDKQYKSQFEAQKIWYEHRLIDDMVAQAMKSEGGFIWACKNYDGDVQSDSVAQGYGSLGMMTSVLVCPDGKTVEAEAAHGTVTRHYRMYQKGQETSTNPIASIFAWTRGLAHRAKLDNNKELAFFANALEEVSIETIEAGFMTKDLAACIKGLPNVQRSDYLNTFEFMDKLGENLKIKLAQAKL

[5] = Tmax in Sprague-Dawley rat at 0.5 mg/kg, iv measured after 24 hrs by LC-MS/MS analysis; format: ADME, organism-based; conditions: in vivo
[6] = test system: Isocitrate dehydrogenase [NADP] cytoplasmic (Homo sapiens), O75874 [R132C]; assay: Inhibition of recombinant human IDH1 R132C mutant extracted from Escherichia coli BL21 (DE3) cells using alpha-ketoglutarate as substrate at 2 uM incubated for 60 mins in presence of NADPH by absorbance based assay relative to control
Sequence of Isocitrate dehydrogenase [NADP] cytoplasmic (Homo sapiens), O75874 [R132C] (O75874 whole entry R132C): as the sequence (O75874 whole entry R132H) above, with H132C counted along it

[7] = test system: HT-1080; assay: Cell cycle arrest in human HT-1080 cells assessed as G2 phase cells at 2 uM incubated for 24 hrs by PI staining based flow cytometric analysis (reference value: 23.6 %); format: functional
[8] = test system: HT-1080; assay: Cell cycle arrest in human HT-1080 cells assessed as S phase cells at 2 uM incubated for 24 hrs by PI staining based flow cytometric analysis (reference value: 18.3 %); format: functional
[9] = target: Isocitrate dehydrogenase [NADP] cytoplasmic (Homo sapiens, UniProt O75874, R132C); assay: Inhibition of recombinant human IDH1 R132C mutant extracted from Escherichia coli BL21 (DE3) cells using alpha-ketoglutarate as substrate incubated for 60 mins in presence of NADPH by absorbance based assay
Sequence of Isocitrate dehydrogenase [NADP] cytoplasmic (Homo sapiens, UniProt O75874, R132C) (O75874 2-414 R132C limits assumed): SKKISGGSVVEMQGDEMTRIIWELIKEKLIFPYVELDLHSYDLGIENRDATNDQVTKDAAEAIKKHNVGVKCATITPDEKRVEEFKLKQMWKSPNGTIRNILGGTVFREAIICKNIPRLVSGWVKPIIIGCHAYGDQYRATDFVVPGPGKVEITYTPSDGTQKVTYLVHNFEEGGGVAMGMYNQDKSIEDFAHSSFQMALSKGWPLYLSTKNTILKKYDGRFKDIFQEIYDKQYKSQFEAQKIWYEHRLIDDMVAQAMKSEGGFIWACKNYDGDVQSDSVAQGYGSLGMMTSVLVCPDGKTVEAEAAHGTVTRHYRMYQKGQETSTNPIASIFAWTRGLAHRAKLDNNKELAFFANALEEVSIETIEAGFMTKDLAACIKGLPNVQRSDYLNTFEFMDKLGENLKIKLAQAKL

[10] = test system: HT-1080; assay: Cell cycle arrest in human HT-1080 cells assessed as G2 phase cells at 8 uM incubated for 24 hrs by PI staining based flow cytometric analysis (reference value: 23.6 %); format: functional
[11] = test system: HT-1080; assay: Induction of apoptosis in human HT-1080 cells assessed as late apoptotic cells at 8 uM incubated for 48 hrs by Annexin V-FITC/PI staining based flow cytometric analysis (reference value: 1.15 %); format: functional
[12] = test system: HT-1080; assay: Cell cycle arrest in human HT-1080 cells assessed as G1 phase cells at 2 uM incubated for 24 hrs by PI staining based flow cytometric analysis (reference value: 58.1 %); format: functional
[13] = test system: HT-1080; assay: Induction of apoptosis in human HT-1080 cells assessed as necrotic cells at 6 uM incubated for 24 hrs by Annexin V-FITC/PI staining based flow cytometric analysis (reference value: 0.38 %); format: functional
[14] = test system: HT-1080; assay: Induction of apoptosis in human HT-1080 cells assessed as late apoptotic cells at 6 uM incubated for 48 hrs by Annexin V-FITC/PI staining based flow cytometric analysis (reference value: 0.60 %); format: functional
[15] = test system: L02; assay: Cytotoxicity against human L02 cells assessed as reduction in cell viability at 0.5 to 2 uM; format: toxicity, cell-based; conditions: l02, 2 µM, dose 0.5-2 µM
[16] = test system: HT-1080; assay: Induction of apoptosis in human HT-1080 cells assessed as late apoptotic cells at 6 uM incubated for 12 hrs by Annexin V-FITC/PI staining based flow cytometric analysis (reference value: 0.60 %); format: functional
[17] = test system: HT-1080; assay: Cell cycle arrest in human HT-1080 cells assessed as S phase cells at 10 uM incubated for 24 hrs by PI staining based flow cytometric analysis (reference value: 18.3 %); format: functional
[18] = test system: HT-1080; assay: Induction of apoptosis in human HT-1080 cells assessed as necrotic cells at 2 uM incubated for 48 hrs by Annexin V-FITC/PI staining based flow cytometric analysis (reference value: 0.45 %); format: functional
[19] = test system: HT-1080; assay: Cell cycle arrest in human HT-1080 cells assessed as S phase cells at 4 uM incubated for 24 hrs by PI staining based flow cytometric analysis (reference value: 18.3 %); format: functional
[20] = target: Isocitrate dehydrogenase [NADP] cytoplasmic (Homo sapiens, UniProt O75874); assay: Inhibition of recombinant human wildtype IDH1 extracted from Escherichia coli BL21 (DE3) cells using alpha-ketoglutarate as substrate incubated for 60 mins in presence of NADPH by absorbance based assay
Sequence of Isocitrate dehydrogenase [NADP] cytoplasmic (Homo sapiens, UniProt O75874) (O75874 whole entry): as the sequence (O75874 whole entry R132H) above, with H132R counted along it

[21] = Toxicity in female nude mouse xenografted with human HT-1080 cells assessed as body weight loss at 40 mg/kg, ip administered every 2 days for 8 days; format: organism-based; conditions: in vivo, 192 h, time 8 day
[22] = AUC (0 to t) in Sprague-Dawley rat at 5 mg/kg, po measured after 24 hrs by LC-MS/MS analysis; format: ADME, organism-based; conditions: in vivo
[23] = test system: HT-1080; assay: Cell cycle arrest in human HT-1080 cells assessed as S phase cells at 8 uM incubated for 24 hrs by PI staining based flow cytometric analysis (reference value: 18.3 %); format: functional
[24] = test system: HT-1080; assay: Cell cycle arrest in human HT-1080 cells assessed as G2 phase cells at 4 uM incubated for 24 hrs by PI staining based flow cytometric analysis (reference value: 23.6 %); format: functional
[25] = test system: HT-1080; assay: Induction of apoptosis in human HT-1080 cells assessed as viable cells at 4 uM incubated for 48 hrs by Annexin V-FITC/PI staining based flow cytometric analysis (reference value: 96.07 %); format: functional; conditions: read-out: Activity
[26] = test system: HT-1080; assay: Induction of apoptosis in human HT-1080 cells assessed as early apoptotic cells at 4 uM incubated for 48 hrs by Annexin V-FITC/PI staining based flow cytometric analysis (reference value: 2.33 %); format: functional
[27] = target: Isocitrate dehydrogenase [NADP] cytoplasmic (Homo sapiens, UniProt O75874, R132H); assay: Inhibition of recombinant human IDH1 R132H mutant extracted from Escherichia coli BL21 (DE3) cells using alpha-ketoglutarate as substrate incubated for 60 mins in presence of NADPH by absorbance based assay
Sequence of Isocitrate dehydrogenase [NADP] cytoplasmic (Homo sapiens, UniProt O75874, R132H) (O75874 2-414 R132H limits assumed): as the sequence (O75874 2-414 R132C limits assumed) above, with C131H counted along it

[28] = test system: HT-1080; assay: Induction of apoptosis in human HT-1080 cells assessed as late apoptotic cells at 6 uM incubated for 24 hrs by Annexin V-FITC/PI staining based flow cytometric analysis (reference value: 0.60 %); format: functional
[29] = In vivo inhibition of IDH1 mutant in female nude mouse xenografted with human HT-1080 cells assessed as reduction in 2-HG levels in tumor at 40 mg/kg, ip administered twice at 1 hrs interval by resazurin fluorescence dye based Sigma MAK320-1 assay kit analysis relative to control; format: functional
[30] = test system: Isocitrate dehydrogenase [NADP] cytoplasmic (Homo sapiens), O75874 [R132H]; assay: Inhibition of recombinant human IDH1 R132H mutant extracted from Escherichia coli BL21 (DE3) cells using alpha-ketoglutarate as substrate at 2 uM incubated for 60 mins in presence of NADPH by absorbance based assay relative to control
[31] = test system: HT-1080; assay: Cell cycle arrest in human HT-1080 cells assessed as G1 phase cells at 4 uM incubated for 24 hrs by PI staining based flow cytometric analysis (reference value: 58.1 %); format: functional
[32] = test system: HT-1080; assay: Cell cycle arrest in human HT-1080 cells assessed as G1 phase cells at 8 uM incubated for 24 hrs by PI staining based flow cytometric analysis (reference value: 58.1 %); format: functional

Tmax [2]: 11.4 min
inhibition [4]: 75.4%
Tmax [5]: 1.8 min
inhibition [6]: > 100%
IC50 [9]: 95.7 nM
IC50 [20]: > 20000 nM
AUC(0-t) at 24 h [22]: 370 ng·h/mL
IC50 [27]: 124 nM
inhibition [30]: > 100%
SMILES: COc1cc(O)c(-c2cc(-c3ccc(O)cc3)nc(N3CCNCC3)n2)cc1CC=C(C)C
Activity [1]: 0.62%
GC50 [3]: 6910 nM
Activity [7]: 21.9%
Activity [8]: 22.4%
Activity [10]: 15.9%
Activity [11]: 17.93%
Activity [12]: 55.7%
Activity [13]: 4.16%
Activity [14]: 6.57%
Activity [15]: Non-Toxic
Activity [16]: 2.92%
Activity [17]: 51.6%
Activity [18]: 1.16%
Activity [19]: 22.9%
Activity [21]: Non-Toxic
Activity [23]: 32.3%
Activity [24]: 21%
viability at 4 µM [25]: 83.7%
Activity [26]: 4.48%
Activity [28]: 5.26%
inhibition in vivo at 40 mg/kg [29]: 96%
Activity [31]: 56.1%
Activity [32]: 51.8%
